# Source: patent EP0429372A1, “2-Azolyl nicotinate derivatives as herbicides” (RHONE-POULENC AGROCHIMIE, priority 1989, dated 1991)
# Where two headings read alike, the source gives them in different places.
# Columns and labels:
# Type in all cases: in vivo
# Sinapis alba = test: Example B: post-emergence herbicidal application, pot test; conditions: 1000 g/ha, 576 h
# Solanum nigrum [1] = test: as above; conditions: 1000 g/ha, 576 h
# How it was run: (§1)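 Post-emergence spray at 500 L/ha on seedlings in light soil (grasses at second-leaf stage, dicots at cotyledon/first true leaf), rates of 4000 g/ha. Held 24 days at room temperature, 70% RH, subirrigated. Plant kill and height reduction versus untreated combined into surviving foliar volume, scored 0–5.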
# Ipomea purpurea = test: as above; conditions: 1000 g/ha, 576 h
# How it was run: as §1
# Echinochloa crusgalli = test: as above; conditions: 1000 g/ha, 576 h
# How it was run: as §1
# Digitaria sanguinalis = test: as above; conditions: 1000 g/ha, 576 h
# How it was run: as §1
# Xanthium pennsylvanicum = test: Example C: selectivity test in major crops, post-emergence application; conditions: 576 h
# How it was run: (§2)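 A 0–5 rating, with 0 or 1 counted as selective, was obtained from plant kill and size reduction relative to controls 24 days post-treatment.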
# Ipomea pupurea = test: as above; conditions: 576 h
# How it was run: as §2
# Solanum nigrum [2] = test: as above; conditions: 576 h
# How it was run: as §2
# Oryza sativa = test: as above; conditions: crop (Riz), 24 days, score 0-5, 0 or 1 = selective; note: ranges in brackets are in %
# How it was run: as §2
# Viola tricolor = test: as above; conditions: 576 h
# How it was run: as §2
# Triticum aestivum = test: as above; conditions: crop (Blé), 24 days, score 0-5, 0 or 1 = selective; note: ranges in brackets are in %
# How it was run: as §2
# Zea mays = test: as above; conditions: crop (Maïs), 24 days, score 0-5, 0 or 1 = selective; note: ranges in brackets are in %
# How it was run: as §2
# Sesbania exaltata = test: as above; conditions: 576 h
# How it was run: as §2
# Polygonum convolvulus = conditions: 576 h
# Description: (§3) Dans des pots de 7 x 7 x 8 cm remplis de terre agricole légère, on sème un nombre de graines déterminé en fonction de l'espèce végétale et de la grosseur de la graine.
# (§4) On recouvre ensuite les graines d'une couche de terre d'environ 3 mm d'épaisseur et on laisse germer la graine jusqu'à ce qu'elle donne naissance à une plantule au stade convenable. Le stade de traitement pour les graminées est le stade "deuxième feuille en formation". Le stade de traitement pour les dicotylédones, est le stade "cotylédons étalés, première feuille vraie en développement".
# (§5) Les pots sont alors traités par pulvérisation de bouillie en quantité correspondant à une dose volumique d'application de 500 l/ha et contenant la matière active à la concentration désirée.
# (§6) La bouillie a été préparée de la même manière qu'à l'exemple A.
# (§7) Les pots traités sont ensuite placés dans des bacs destinés à recevoir l'eau d'arrosage, en subirrigation, et maintenus pendant 24 jours à température ambiante sous 70 % d'humidité relative.
# (§8) Au bout de 24 jours, on mesure un pourcentage (D) de destruction du nombre de pieds dans le pot traité par rapport au nombre de plantes dans les pots non traités (témoin). On mesure, sur les plantes traitées restantes, le pourcentage de réduction de taille (RT) par rapport aux plantes témoin.
# (§9) Le pourcentage de volume foliaire non détruit par le produit est donc donné par la formule : [formula]
# (§10) Cette valeur A est transformée en notation de 0 à 5 selon l'échelle suivante :
# (§11) Ainsi, un produit est jugé comme sélectif vis à vis de la culture lorsque la valeur A notée est de 0 ou 1.
# (§12) Les résultats obtenus sont présentés dans l'exemple C pour des doses d'application comprises entre 0,5 et 4 kg de matière active par hectare selon les produits.
# Convolvulus arvensis = conditions: post-emergence, 576 h
# Description: as §3, §4, §5, §6, §7, §8, §9, §10, §11, §12
# Chrysanthemum segetum = conditions: post-emergence, 576 h
# Description: as §3, §4, §5, §6, §7, §8, §9, §10, §11, §12
smiles,measurement,setting,value
CN(C)S(=O)(=O)n1c(-c2ncccc2C(=O)O)nc2ccccc21 [compound 119],ACTIVITE DE POST-LEVEE SIN,Sinapis alba,4 (10 à 30)
same,ACTIVITE DE POST-LEVEE SOL,Solanum nigrum [1],5 (O à 10)
same,ACTIVITE DE POST-LEVEE IPO,Ipomea purpurea,3 (30 à 50)
same,ACTIVITE DE POST-LEVEE ECH,Echinochloa crusgalli,0 (90 à 100)
same,ACTIVITE DE POST-LEVEE DIG,Digitaria sanguinalis,0 (90 à 100)
same,ACTIVITE HERBICIDE DE POST LEVEE X A N,Xanthium pennsylvanicum; 500 g/ha,3 (30 à 50)
same,ACTIVITE HERBICIDE DE POST LEVEE I P O,Ipomea pupurea; 500 g/ha,3 (30 à 50)
same,ACTIVITE HERBICIDE DE POST LEVEE S O L,Solanum nigrum [2]; 500 g/ha,4 (10 à 30)
same,ACTIVITE HERBICIDE DE POST LEVEE O R Y,"Oryza sativa; dose 0,5 kg/ha",0 (90 à 100)
same,ACTIVITE HERBICIDE DE POST LEVEE V I O,Viola tricolor; 500 g/ha,3 (30 à 50)
same,ACTIVITE HERBICIDE DE POST LEVEE T R Z,"Triticum aestivum; dose 0,5 kg/ha",0 (90 à 100)
same,ACTIVITE HERBICIDE DE POST LEVEE Z E A,"Zea mays; dose 0,5 kg/ha",0 (90 à 100)
same,ACTIVITE HERBICIDE DE POST LEVEE S E S,Sesbania exaltata; 500 g/ha,5 (O à 10)
same,ACTIVITE HERBICIDE DE POST LEVEE P O L,Polygonum convolvulus; 500 g/ha,5 (O à 10)
same,ACTIVITE HERBICIDE DE POST LEVEE C O N,Convolvulus arvensis; 500 g/ha,2 (50 à 70)
same,ACTIVITE HERBICIDE DE POST LEVEE C H Y,Chrysanthemum segetum; 500 g/ha,5 (O à 10)
CN(C)S(=O)(=O)n1c(-c2ncccc2C(=O)O)nc2ccccc21 [compound 122],ACTIVITE DE POST-LEVEE SIN,Sinapis alba,5 (O à 10)
same,ACTIVITE DE POST-LEVEE SOL,Solanum nigrum [1],5 (O à 10)
same,ACTIVITE DE POST-LEVEE IPO,Ipomea purpurea,4 (10 à 30)
same,ACTIVITE DE POST-LEVEE ECH,Echinochloa crusgalli,2 (50 à 70)
same,ACTIVITE DE POST-LEVEE DIG,Digitaria sanguinalis,1 (70 à 90)
same,ACTIVITE HERBICIDE DE POST LEVEE X A N,Xanthium pennsylvanicum; 1000 g/ha,5 (O à 10)
same,ACTIVITE HERBICIDE DE POST LEVEE I P O,Ipomea pupurea; 1000 g/ha,5 (O à 10)
same,ACTIVITE HERBICIDE DE POST LEVEE S O L,Solanum nigrum [2]; 1000 g/ha,5 (O à 10)
same,ACTIVITE HERBICIDE DE POST LEVEE O R Y,Oryza sativa; dose 1 kg/ha,0 (90 à 100)
same,ACTIVITE HERBICIDE DE POST LEVEE V I O,Viola tricolor; 1000 g/ha,3 (30 à 50)
same,ACTIVITE HERBICIDE DE POST LEVEE T R Z,Triticum aestivum; dose 1 kg/ha,0 (90 à 100)
same,ACTIVITE HERBICIDE DE POST LEVEE Z E A,Zea mays; dose 1 kg/ha,0 (90 à 100)
same,ACTIVITE HERBICIDE DE POST LEVEE S E S,Sesbania exaltata; 1000 g/ha,5 (O à 10)
same,ACTIVITE HERBICIDE DE POST LEVEE P O L,Polygonum convolvulus; 1000 g/ha,5 (O à 10)
same,ACTIVITE HERBICIDE DE POST LEVEE C O N,Convolvulus arvensis; 1000 g/ha,5 (O à 10)
same,ACTIVITE HERBICIDE DE POST LEVEE C H Y,Chrysanthemum segetum; 1000 g/ha,5 (O à 10)
